According to ChEMBL document CHEMBL1909046, “DrugMatrix in vitro pharmacology data”:

What was measured:
[1] = target: Protein phosphatase 3 catalytic subunit alpha (Homo sapiens, UniProt Q08209); design: species or system Escherichia coli;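 further: inhibition of calcineurin (PP2B) enzyme activity, measured with DiFMUP as the substrate; in other assays of this panel Not Active means under 50% inhibition at 10 µM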
Cannabinoid receptor 1 = Cannabinoid receptor 1 (Homo sapiens, UniProt P21554); format: cell membranes, Chem-1, Membrane; conditions: chem-1; further: in other assays of this panel Not Active means under 50% inhibition at 10 µM
[2] = target: Voltage-gated inwardly rectifying potassium channel KCNH2 (Homo sapiens, UniProt Q12809); conditions: hek293; further: in other assays of this panel Not Active means under 50% inhibition at 10 µM
Cytochrome P450 1A2 = target: T1, Cytochrome P450 1A2 (Homo sapiens, UniProt P05177); conditions: bti-tn-5b1-4; further: in other assays of this panel Not Active means under 50% inhibition at 10 µM
T1 sequence (P05177 whole entry): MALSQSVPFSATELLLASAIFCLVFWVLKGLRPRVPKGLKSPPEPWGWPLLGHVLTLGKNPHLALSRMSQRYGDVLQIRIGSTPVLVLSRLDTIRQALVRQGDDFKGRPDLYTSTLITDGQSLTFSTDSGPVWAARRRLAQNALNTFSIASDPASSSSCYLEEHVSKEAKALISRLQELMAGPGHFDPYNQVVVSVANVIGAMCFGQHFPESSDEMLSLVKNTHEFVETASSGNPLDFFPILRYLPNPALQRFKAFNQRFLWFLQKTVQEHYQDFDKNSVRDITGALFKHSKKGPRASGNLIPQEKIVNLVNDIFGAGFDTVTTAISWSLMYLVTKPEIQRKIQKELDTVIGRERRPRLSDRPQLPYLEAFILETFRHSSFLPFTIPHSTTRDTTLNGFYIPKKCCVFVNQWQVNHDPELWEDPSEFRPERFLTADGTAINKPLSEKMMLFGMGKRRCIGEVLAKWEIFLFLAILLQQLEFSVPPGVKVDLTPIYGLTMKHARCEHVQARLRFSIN

[3] = DRUGMATRIX: GABAA, Chloride Channel, TBOB radioligand binding (ligand: [3H] TBOB); format: cell membranes, Rattus norvegicus, Wistar, Cerebral cortex, Membrane; conditions: Not Active = under 50% inhibition at 10 µM
[4] = target: T2, Polyunsaturated fatty acid lipoxygenase ALOX15 (Oryctolagus cuniculus, UniProt P12530); experiment: biochemical; format: tissue-based, Reticulocytes
T2 sequence (P12530 whole entry): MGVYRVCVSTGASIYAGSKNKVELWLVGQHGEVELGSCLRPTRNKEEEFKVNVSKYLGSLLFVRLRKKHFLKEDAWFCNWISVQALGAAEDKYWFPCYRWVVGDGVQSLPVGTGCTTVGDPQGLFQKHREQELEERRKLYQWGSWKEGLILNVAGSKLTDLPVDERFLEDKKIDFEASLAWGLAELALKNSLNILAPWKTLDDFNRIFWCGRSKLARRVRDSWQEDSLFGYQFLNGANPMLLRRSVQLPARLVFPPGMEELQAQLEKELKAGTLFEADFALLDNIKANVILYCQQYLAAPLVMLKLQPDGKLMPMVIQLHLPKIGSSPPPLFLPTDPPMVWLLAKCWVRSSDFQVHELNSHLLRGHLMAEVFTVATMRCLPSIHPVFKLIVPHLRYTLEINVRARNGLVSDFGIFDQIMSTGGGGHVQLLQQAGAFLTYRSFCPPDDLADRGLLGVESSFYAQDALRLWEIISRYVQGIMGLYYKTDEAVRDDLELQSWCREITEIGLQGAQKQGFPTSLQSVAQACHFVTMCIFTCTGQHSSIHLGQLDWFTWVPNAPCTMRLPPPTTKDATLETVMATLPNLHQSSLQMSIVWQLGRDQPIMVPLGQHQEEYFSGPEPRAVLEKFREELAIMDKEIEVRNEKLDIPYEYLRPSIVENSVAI

[5] = DRUGMATRIX: Glutamate, NMDA, Agonism radioligand binding (ligand: [3H] CGP-39653); format: cell membranes, Rattus norvegicus, Wistar, Cerebral cortex, Membrane; conditions: Not Active = under 50% inhibition at 10 µM
[6] = target: C-C chemokine receptor type 5 (Homo sapiens, UniProt P51681); format: cell membranes, HEK293, Membrane; conditions: hek293; further: in other assays of this panel Not Active means under 50% inhibition at 10 µM
Chain of C-C chemokine receptor type 5 (P51681 whole entry): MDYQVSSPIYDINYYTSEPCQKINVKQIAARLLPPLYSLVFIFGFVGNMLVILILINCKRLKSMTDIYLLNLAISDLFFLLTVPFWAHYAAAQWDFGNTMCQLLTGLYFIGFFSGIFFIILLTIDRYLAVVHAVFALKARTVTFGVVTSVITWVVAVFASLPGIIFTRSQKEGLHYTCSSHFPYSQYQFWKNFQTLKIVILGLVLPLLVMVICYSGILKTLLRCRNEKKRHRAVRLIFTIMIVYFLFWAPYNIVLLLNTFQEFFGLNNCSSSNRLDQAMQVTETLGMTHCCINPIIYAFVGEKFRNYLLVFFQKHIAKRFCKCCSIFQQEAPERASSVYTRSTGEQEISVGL

Chain of Cannabinoid receptor 1 (P21554 whole entry): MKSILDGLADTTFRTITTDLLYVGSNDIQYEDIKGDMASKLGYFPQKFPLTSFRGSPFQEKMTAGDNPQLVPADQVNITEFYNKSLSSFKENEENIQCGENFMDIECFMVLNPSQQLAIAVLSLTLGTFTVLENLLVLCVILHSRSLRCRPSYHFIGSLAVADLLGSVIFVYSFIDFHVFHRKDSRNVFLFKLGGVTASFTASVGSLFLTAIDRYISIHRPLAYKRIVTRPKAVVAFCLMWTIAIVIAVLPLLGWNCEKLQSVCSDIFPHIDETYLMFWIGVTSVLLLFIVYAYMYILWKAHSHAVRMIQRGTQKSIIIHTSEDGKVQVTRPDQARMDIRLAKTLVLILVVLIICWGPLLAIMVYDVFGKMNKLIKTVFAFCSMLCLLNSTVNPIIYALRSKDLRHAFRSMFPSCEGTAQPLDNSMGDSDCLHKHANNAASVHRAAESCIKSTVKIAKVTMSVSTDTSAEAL
Chain of Voltage-gated inwardly rectifying potassium channel KCNH2 (Q12809 whole entry): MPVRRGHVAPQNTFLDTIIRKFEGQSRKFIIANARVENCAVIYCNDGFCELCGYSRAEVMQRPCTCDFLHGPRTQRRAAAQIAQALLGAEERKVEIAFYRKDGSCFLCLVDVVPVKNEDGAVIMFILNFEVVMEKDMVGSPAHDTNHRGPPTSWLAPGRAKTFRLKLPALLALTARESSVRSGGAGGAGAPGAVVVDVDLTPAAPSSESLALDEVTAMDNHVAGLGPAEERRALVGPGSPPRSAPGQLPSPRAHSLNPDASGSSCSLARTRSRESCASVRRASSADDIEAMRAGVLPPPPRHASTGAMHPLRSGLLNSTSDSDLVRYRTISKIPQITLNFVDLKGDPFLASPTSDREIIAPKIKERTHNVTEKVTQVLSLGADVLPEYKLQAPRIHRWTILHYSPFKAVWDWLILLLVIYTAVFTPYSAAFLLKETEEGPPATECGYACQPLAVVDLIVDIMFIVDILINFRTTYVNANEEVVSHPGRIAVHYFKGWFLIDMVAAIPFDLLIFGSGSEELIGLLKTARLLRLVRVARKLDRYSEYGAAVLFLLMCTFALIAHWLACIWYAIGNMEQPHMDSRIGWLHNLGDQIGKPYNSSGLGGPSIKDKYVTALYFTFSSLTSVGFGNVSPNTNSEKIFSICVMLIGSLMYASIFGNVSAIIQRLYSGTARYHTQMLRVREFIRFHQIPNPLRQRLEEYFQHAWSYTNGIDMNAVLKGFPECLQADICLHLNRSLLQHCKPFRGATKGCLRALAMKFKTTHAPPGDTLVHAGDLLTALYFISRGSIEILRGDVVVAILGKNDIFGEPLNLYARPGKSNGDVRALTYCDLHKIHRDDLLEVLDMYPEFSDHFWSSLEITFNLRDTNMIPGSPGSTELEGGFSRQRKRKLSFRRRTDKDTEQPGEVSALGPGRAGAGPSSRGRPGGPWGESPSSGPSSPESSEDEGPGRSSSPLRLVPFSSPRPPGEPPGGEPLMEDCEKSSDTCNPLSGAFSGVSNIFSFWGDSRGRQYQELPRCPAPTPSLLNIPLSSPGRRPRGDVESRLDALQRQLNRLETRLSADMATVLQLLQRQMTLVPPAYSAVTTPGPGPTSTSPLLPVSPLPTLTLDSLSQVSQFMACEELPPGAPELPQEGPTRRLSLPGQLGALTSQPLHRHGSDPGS

Row | SMILES | IC50 [1] | IC50 (Cannabinoid receptor 1) | IC50 [2] | Ki [2] | IC50 (Cytochrome P450 1A2) | Ki (Cytochrome P450 1A2) | IC50 [3] | Ki [3] | IC50 ([4]; reticulocytes) | IC50 [5] | Ki [5] | IC50 [6] | IC50 ([4]; read-out: IC50) [µM]
1 | CN(C)/N=N/c1[nH]cnc1C(N)=O [DACARBAZINE] | Not Active | Not Active | Not Active | Not Active | Not Active | Not Active | Not Active | Not Active | Not Active | Not Active | Not Active | Not Active | –
2 | Oc1ccc(OCc2ccccc2)cc1 [MONOBENZONE] | Not Active | Not Active | Not Active | Not Active | Not Active | Not Active | Not Active | Not Active | – | Not Active | Not Active | Not Active | 4.89
3 | O=C1CC2(CCCC2)CC(=O)N1CCCCN1CCN(c2ncccn2)CC1 [BUSPIRONE] | Not Active | Not Active | Not Active | Not Active | Not Active | Not Active | Not Active | Not Active | Not Active | Not Active | Not Active | Not Active | –
4 | Nc1ccn([C@@H]2CS[C@H](CO)O2)c(=O)n1 [LAMIVUDINE] | Not Active | Not Active | Not Active | Not Active | Not Active | Not Active | Not Active | Not Active | Not Active | Not Active | Not Active | Not Active | –
5 | COc1ccc2c(c1)c(CC(=O)O)c(C)n2C(=O)c1ccc(Cl)cc1 [INDOMETHACIN] | Not Active | Not Active | Not Active | Not Active | Not Active | Not Active | Not Active | Not Active | Not Active | Not Active | Not Active | Not Active | –
6 | CC(C)[C@H]1CC[C@H](C(=O)N[C@H](Cc2ccccc2)C(=O)O)CC1 [NATEGLINIDE] | Not Active | Not Active | Not Active | Not Active | Not Active | Not Active | Not Active | Not Active | Not Active | Not Active | Not Active | Not Active | –
7 | CCCC(=O)Nc1ccc(OCC(O)CNC(C)C)c(C(C)=O)c1 (stereo not drawn) [ACEBUTOLOL] | Not Active | Not Active | Not Active | Not Active | Not Active | Not Active | Not Active | Not Active | Not Active | Not Active | Not Active | Not Active | –
8 | C[C@]12CC[C@@H]3c4ccc(OC(=O)c5ccccc5)cc4CC[C@H]3[C@@H]1CC[C@@H]2O [ESTRADIOL BENZOATE] | Not Active | Not Active | Not Active | Not Active | Not Active | Not Active | Not Active | Not Active | Not Active | Not Active | Not Active | Not Active | –
9 | CC1(C)O[C@@H]2C[C@H]3[C@@H]4C[C@H](F)C5=CC(=O)C=C[C@]5(C)[C@H]4[C@@H](O)C[C@]3(C)[C@]2(C(=O)CO)O1 [FLUNISOLIDE] | Not Active | Not Active | Not Active | Not Active | Not Active | Not Active | Not Active | Not Active | Not Active | Not Active | Not Active | Not Active | –
10 | CC(=O)Nc1ccc(O)cc1 [ACETAMINOPHEN] | Not Active | Not Active | Not Active | Not Active | Not Active | Not Active | Not Active | Not Active | – | Not Active | Not Active | Not Active | 28.4
11 | CCc1c2c(nc3ccc(OC(=O)N4CCC(N5CCCCC5)CC4)cc13)-c1cc3c(c(=O)n1C2)COC(=O)[C@]3(O)CC [IRINOTECAN] | Not Active | Not Active | Not Active | Not Active | Not Active | Not Active | Not Active | Not Active | Not Active | Not Active | Not Active | Not Active | –
12 | C#C[C@]1(OC(C)=O)CC[C@H]2[C@@H]3CCC4=CC(=O)CC[C@@H]4[C@H]3CC[C@@]21C [NORETHINDRONE ACETATE] | Not Active | Not Active | Not Active | Not Active | Not Active | Not Active | Not Active | Not Active | Not Active | Not Active | Not Active | Not Active | –
13 | ClC(Cl)Cl [CHLOROFORM] | Not Active | Not Active | Not Active | Not Active | Not Active | Not Active | Not Active | Not Active | Not Active | Not Active | Not Active | Not Active | –
14 | N=C(N)NC(=O)c1nc(Cl)c(N)nc1N [AMILORIDE] | Not Active | Not Active | Not Active | Not Active | Not Active | Not Active | Not Active | Not Active | Not Active | Not Active | Not Active | Not Active | –
15 | CCN1CC(CCN2CCOCC2)C(c2ccccc2)(c2ccccc2)C1=O (stereo not drawn) [DOXAPRAM] | Not Active | Not Active | Not Active | Not Active | Not Active | Not Active | Not Active | Not Active | Not Active | Not Active | Not Active | Not Active | –
16 | Cc1ccc(S(=O)(=O)NC(=O)NN2CC3CCCC3C2)cc1 (stereo not drawn) [GLICLAZIDE] | Not Active | Not Active | Not Active | Not Active | Not Active | Not Active | Not Active | Not Active | Not Active | Not Active | Not Active | Not Active | –
17 | COc1cccc2c1C(=O)c1c(O)c3c(c(O)c1C2=O)C[C@@](O)(C(=O)CO)C[C@@H]3O[C@H]1C[C@H](N)[C@H](O)[C@H](C)O1 [DOXORUBICIN] | Not Active | Not Active | Not Active | Not Active | Not Active | Not Active | Not Active | Not Active | – | Not Active | Not Active | Not Active | 13.6
18 | Cn1c(=O)c2c(ncn2CC2OCCO2)n(C)c1=O [DOXOFYLLINE] | Not Active | Not Active | Not Active | Not Active | Not Active | Not Active | Not Active | Not Active | Not Active | Not Active | Not Active | Not Active | –
19 | Cc1cc2cc3c(C)cc(=O)oc3c(C)c2o1 [TRIOXSALEN] | Not Active | Not Active | Not Active | Not Active | Not Active | Not Active | Not Active | Not Active | Not Active | Not Active | Not Active | Not Active | –
